Experimental data from patent US20230340127A1, “METHODS AND COMPOSITIONS FOR CANCER TREATMENT BY INHIBITION OF FBXO44” (Sanford Burnham Prebys Medical Discovery Institute, priority 2022, published 2023).

Key:
[1] = tested on: chromatin associated H3K9me3 modifications in MDA-MB-231 cells; assay: Immunofluorescence of chromatin associated H3K9me3 after F5446 treatment; assay type: cell-based, human; details: vehicle or F5446 for 48 hrs, IF (FIG. 10E)
Protocol: Immunofluorescence (IF): IF was performed to detect chromatin associated H3K9me3 in siRNA of FBXO44 or control. Briefly, cells were grown on Laminin-coated coverslips (neuVitro no. GG-12-laminin), washed twice with cold PBS, and then fixed with 4% paraformaldehyde for 20 min at 25° C. followed by permeabilization with 0.5% Triton X-100 in PBS for 5 min. Cells were fixed with chilled methanol for 5 min at −20° C. After 3×10 min washes in PBS, cells were incubated in blocking buffer (10 mM Tris-Cl [pH 7.5], 120 mM KCl, 20 mM NaCl, 0.5 mM EDTA, 0.1% Triton X-100, 10% milk, 2% BSA) overnight at 4° C. The relevant primary antibodies diluted in blocking buffer were then added. Specifically, 1:500 dilution for anti-H3K9me3 (Abcam no. ab8898). Cells were washed 3×10 min with KCMT buffer (10 mM Tris-Cl [pH 7.5], 120 mM KCl, 20 mM NaCl, 0.5 mM EDTA, 0.1% Triton X-100) and incubated with Alexa Fluor 488-labeled anti-rabbit (Thermo Fisher Scientific no. A-21441) or Alexa Fluor 594-labeled anti-mouse (Cell Signaling Technologies no. 8890) antibodies at 1:500 dilution for 1 hr at 25° C. After 3×10 min washes with KCMT buffer, cells were stained with DAPI (Thermo Fisher Scientific no. D1306), coverslips mounted with anti-fade mounting medium (Vector Laboratories no. H-1000), and slides examined by fluorescence microscopy (Nikon Inverted TE300) or confocal microscopy (Zeiss LSM 710 NLO). […]

4T1 tumors = assay: 4T1 mammary tumors in syngeneic immunocompetent mice, F5446 plus anti-PD-1 antibody; assay type: in vivo, mouse
Protocol: 4T1 tumor experiment: 10^5 4T1 cells were inoculated into the mammary fat pads of 6- to 8-week-old female BALB/c mice (The Jackson Laboratory). Tumor size was measured twice weekly. After 22 days, mice were euthanized and portions of each tumor processed for flow cytometry and histological analysis. For antibody treatments, mice were administered 200 μg rat IgG2a isotype control (BioXCell no. BP0089) or anti-PD-1 (BioXCell no. BP0273) antibody via i.p. injection on days 15, 17, 19, 21 and 23 post-inoculation of 4T1 cells. For combination treatments, mice were administered vehicle (10% Cremophor EL in PBS) or F5446 at 10 mg/kg body weight via i.p. injection on days 12, 14, 16, 18, 20, and 22 post-inoculation of cells and administered 200 μg rat IgG2a isotype (control) or anti-PD-1 antibody via i.p. injection on days 15, 17, 19, 21, and 23 post-inoculation of 4T1 cells. Mouse survival was monitored with tumor volume exceeding 2000 mm^3, weight loss>20%, and decreasing behavioral conditions considered as endpoints.
To investigate the effects of pharmacologically targeting SUV39H1, F5446, on tumor growth and immunotherapy response, experiments using mouse model were performed as described in previous examples. Mice were also treated with F5446. Growth curve, survival curve, IHC, and qRT-PCR experiments were performed as described in previous examples.

Question: What does the source list for `COC(=O)c1cc2c(n1S(=O)(=O)c1ccc(Cl)cc1)C(=O)C(=O)c1[nH]cc(C(=O)OCc3ccccc3)c1-2` [F5446]?
Answer: chromatin-associated H3K9me3 [1]: reduced; sensitivity of 4T1 tumors to anti-PD-1 therapy (4T1 tumors; F5446 10 mg/kg i.p. combined with 200 μg anti-PD-1 antibody i.p. (FIGS. 12M-12O)): enhanced; mouse survival (4T1 tumors; F5446 combined with anti-PD-1 therapy, 4T1 tumors (FIG. 12O)): increased
